Assay results from patent US9180212B2, “β-amyloid plaque imaging agents” (The Regents of the University of California, priority 2012, dated 2015).
“Also recorded” adds a separate entry of the source.

What was measured:
[1] = system: brown adipose tissue (BAT) metabolic activity; experiment: ^18F-FDG PET/CT uptake in interscapular BAT of rats; type: in vivo, Sprague-Dawley rats
Source text: (§1) In still further experiments, binding/uptake of contemplated compounds to/by NET was investigated in adipose tissue, and especially brown adipose tissue. It should be appreciated that due to the innervation of brown adipose tissue (BAT) with neurotransmitter, norepinephrine is essential for regulation of thermogenesis, and thus has a role in obesity and diabetes. Norepinephrine acts by activating β3-adrenoceptor to increase BAT metabolic activity measurable using ^18F-FDG PET. Norepinephrine transporter (NET) inhibitors such as atomoxetine play an important role in BAT activity by increasing norepinephrine levels.
(§2) Male Sprague-Dawley rats were fasted for 24 hrs prior to ^18F-FDG administration. Rats were administered i.v. ˜0.3 mCi ^18F-FDG under 2% isoflurane anesthesia. The same rats were treated with atomoxetine 1 mg/kg, 30 mins before ^18F-FDG administration. Rats were awake for 60 mins and subsequently anesthetized for upper-body Inveon MicroPET/CT scan. To evaluate whether enhanced ^18F-FDG uptake in activated BAT could be reduced by pharmacologic interventions, propranolol ([…]) 5 mg/kg was given intraperitoneally in anesthetized rats, 30 minutes prior to atomoxetine administration. For NET imaging, ^11C-TAZA (4-^11C-methylamino-4′-dimethylaminoazobenzene) and ^11C-Dalene (4-methylamino-4′-(N—^11C-methyl-N-methylamino)stilbene) were administered iv (˜0.5-3 mCi) and scanned in Inveon PET/CT for 90 mins. Competition studies were done with atomoxetine (preinjection, 1-2 mg/kg). PET/CT data was analysed using IRW and PMOD.

[2] = system: norepinephrine transporters (NET); experiment: Rat brain PET with atomoxetine pre-injection (NET binding/uptake); type: in vivo, Sprague-Dawley rats
Protocol: Based on earlier experimental observations (not shown), the inventors contemplated that the compounds presented herein not only bind with high specificity to β-amyloid, but also with similar high specificity to the NET. To investigate binding to/uptake by the NET, the effect of atomoxetine (ATX, a selective norepinephrine reuptake inhibitor) on the kinetics of Dalene and TAZA was tested. More specifically, Sprague-Dawley rats (308-468 g) received two 90 min PET scans each on two separate days (1-4 weeks apart) with an Inveon scanner. On first day each rat received a baseline scan, one with [^11C]Dalene and the other with [^11C]TAZA (96±8 MBq). The second day each animal was pre-injected i.v. with a 50 μl bolus of ATX (1-2 mg/Kg), 17 min before [^11C]Dalene and 2 min before [^11C]TAZA (33±7 MBq). The images were reconstructed dynamically in 25 frames (4×0.5 min, 8×1 min, 5×2 min, 2×5 min, 6×10 min). Each subject received a CT scan that was used for attenuation and scatter correction. Images were normalized to Paxinos & Watson space via co-registration with an MR rat template. Common regions of interest were drawn on the MR template and placed on brainstem, thalamus (Tha), and midbrain (Mid), brain regions with highest uptake as well as anterior cingulate cortex area 1 (Cg1), region with low NET density and which was chosen as a reference based on previous studies. Time activity curves (TACs) from all regions were analyzed in PMOD using Logan non-invasive method with Cg1's k2′ parameter estimated by fitting of brainstem data to MRTM.
Slices were then washed and exposed on to phosphor screens and slides were analysed by Optiquant image analysis program for SP binding Digital light units/mm^2 (DLU/mm^2). Sprague-Dawley rats were scanned after IV injection of ^11C-TAZA and ^11C-Dalene in Inveon PET/CT and displacement studies were done with atomoxetine (1 mg/kg). PET images were analyzed using PMOD. […] Presence of SP in the AD brains were confirmed using 4G8 antibody immunostaining for Aβ-amyloid. […] Ratios of brain stem to cingulate gyms (used as reference region) was >2.

[3] = system: NET in brown adipose tissue (BAT); experiment: Rat PET/CT NET imaging in brown adipose tissue; type: in vivo, Sprague-Dawley rats; details: atomoxetine preinjection 1-2 mg/kg
Source text: as §1
as §2, with “For NET imaging, ^11C-TAZA (4-^11C-methylamino-4′-dimethylaminoazobenzene) and ^11C-Dalene (4-methylamino-4′-(N—^11C-methyl-N-methylamino)stilbene) were administered iv (˜0.5-3 mCi) and scanned in Inveon PET/CT for 90 mins. Competition studies were done with atomoxetine (preinjection, 1-2 mg/kg).” left out

[4] = target: T1, SP (senile plaques) in hippocampus of AD patients (Homo sapiens, UniProt P05067); experiment: In vitro autoradiography of human hippocampus slices (AD vs control), senile plaque imaging; type: binding; details: for Binding to SP present in AD brains compared to the normal controls (in words): autoradiography
T1 construct: target the polymeric form of the β-amyloid peptide that is associated with senile plaques; from tissue; host or cells: 7 micron frozen sections of hippocampus of AD patients and control brains (UCI-ADRC repository)
Source text: Human post-mortem Studies: We used post mortem human brain specimens from the UCI-ADRC Brain tissue repository for in vitro experiments. Age and gender matched AD brain and control brain tissue were used. Control cases consisted of clinically assessed nondemented individuals ranging in age from 70-90 years of age. AD brain samples were selected for end-stage pathology (based upon comments by the neuropathologist and Braak & Braak stage of VI. We matched each AD case with a similarly aged control case. AD cases, were selected on the basis as having a clinic visit within 1 year of death. Frozen hippocampus and frontal cortex, regions vulnerable to AD pathology, were selected for these studies. Sections of the cerebellum were used as a measure of low/nonspecific binding. Chunks of frozen tissue were dissected for immunohistochemical and autoradiographic techniques, as well as for biochemical experiments.
Serial cryostat sections at 5-10 μm were used. The first set of sections was used to establish the extent of senile plaque and neurofibrillary tangle formation using immunohisto-chemistry and histological techniques. Antibodies against Aβ1-16, Aβ1-40 and Aβ1-42 were used to detect Aβ.
In vitro autoradiography studies were performed on 7 micron slices of hippocampus of AD patients (n=2) and control brains (n=2). Hippocampus slices were incubated with the radiotracer (10-25 μCi/cc) in 40% ethanol-water for ½ hour.
Binding to norepinephrine transporters (NET) were further evaluated in normal rats using PET/CT. Radiosynthesis was carried out by reacting 4-amino-4′-dimethylaminoazobenzene (1 mg/0.5 cc acetone for ^11C-TAZA) and 4-methylamino-4′-(N-methylamino)stilbene (1 mg/0.5 cc acetone for ^11C-Dalene) with 11C-methyltriflate prepared in the GE FXCPro synthesis unit. ^11C-Methyltriflate was trapped at −20° C., subsequently heated for 5 mins at 80° C. and purified using HPLC. In vitro autoradiography studies were performed on 7 micron slices of hippocampus of AD patients and control brains.
Slices were then washed and exposed on to phosphor screens and slides were analysed by Optiquant image analysis program for SP binding Digital light units/mm^2 (DLU/mm^2). Sprague-Dawley rats were scanned after IV injection of ^11C-TAZA and ^11C-Dalene in Inveon PET/CT and displacement studies were done with atomoxetine (1 mg/kg). PET images were analyzed using PMOD.

[5] = cited from earlier work
amyloid plaques = target: T2, amyloid plaques (Homo sapiens, UniProt P05067); experiment: ^3H-PIB competition binding in human Alzheimers brain homogenate
T2 construct: target the polymeric form of the β-amyloid peptide that is associated with senile plaques; from tissue; host or cells: human Alzheimer's disease brain homogenate (post mortem)
T2 sequence (P05067 672-713 limits assumed): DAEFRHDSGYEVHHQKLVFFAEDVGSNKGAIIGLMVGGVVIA

T1 sequence (P05067 672-713 limits assumed): as above

CNCC[C@@H](Oc1ccccc1C)c1ccccc1 [Atomoxetine, atomoxetine]
increase of average ^18F-FDG uptake of IBAT compared to controls ([1]; atomoxetine 1 mg/kg, 30 mins before ^18F-FDG): > 15 times
average ^18F-FDG uptake of IBAT ([1]; atomoxetine 1 mg/kg, 30 mins before ^18F-FDG, controls 23.9±8.7): 365±170 kBq/cc

CN(C)c1ccc(C=Cc2ccc(N[11CH3])cc2)cc1 [^11C-Dalene, 4-^11C-methylamino-4′-(N,N-dimethylamino)stilbene]
Effect of atomoxetine on binding in NET brain regions (in words) ([2]; rat, in vivo): reduced the binding
baseline BPND (Mid) ([2]; rat, in vivo): 0.91
baseline BPND (Tha) ([2]; rat, in vivo): 0.86
baseline BPND (brainstem) ([2]; rat, in vivo): 1.42
change in BPND in ATX condition (Mid) ([2]; rat, in vivo): 5.4%
change in BPND in ATX condition (Tha) ([2]; rat, in vivo): −12%
change in BPND in ATX condition (brainstem) ([2]; rat, in vivo): −18%
peak uptake in ATX condition relative to control ([2]; rat, in vivo): 14 fold
time at which ratio target/reference reached a constant level ([2]; rat, in vivo): 20 min
reduction of IBAT binding by atomoxetine [3]: 35%
Displacement of radiotracer by unlabeled PIB (in words) ([4]; 10 μM PIB, hippocampus slices): not complete; also recorded: displaced
Binding to SP present in AD brains compared to the normal controls (in words) ([4]; hippocampus slices): bound specifically

CC(=C(C#N)C#N)c1ccc2cc(N(C)CC[18F])ccc2c1 [^18F-FDDNP, 2-(1-{6-[(2-[^18F]fluoroethyl)(methyl)amino]-2-naphtyl}ethylidene)malonitrile]
log P [5]: > 3

CC(C)NCC(O)COc1cccc2ccccc12 (centres unmarked) [Propranolol, propranolol]
effect on average ^18F-FDG uptake of IBAT (in words) ([1]; propranolol 5 mg/kg intraperitoneally, 30 minutes prior to atomoxetine): reduced

CN(C)c1ccc(N=Nc2ccc(N[11CH3])cc2)cc1 [^11C-TAZA, 4-^11C-methylamino-4′-dimethylamino-azobenzene]
change in BPND in ATX condition (brainstem) ([2]; ATX 1-2 mg/Kg i.v. pre-injection): 11%
Effect of atomoxetine on binding in NET brain regions (in words) ([2]; atomoxetine 1 mg/kg): reduced the binding
time at which ratio target/reference reached a constant level ([2]; baseline condition, post tracer injection): 20 min
baseline BPND (brainstem) ([2]; baseline scan, Logan non-invasive method, Cg1 reference): 0.7
peak uptake in ATX condition relative to control ([2]; brainstem, ATX 1-2 mg/Kg i.v. pre-injection): 5 fold
baseline BPND (Mid) ([2]; midbrain, baseline scan, Cg1 reference): 0.50
change in BPND in ATX condition (Mid) ([2]; midbrain, ATX 1-2 mg/Kg i.v. pre-injection): 18%
baseline BPND (Tha) ([2]; thalamus, baseline scan, Cg1 reference): 0.41
change in BPND in ATX condition (Tha) ([2]; thalamus, ATX 1-2 mg/Kg i.v. pre-injection): 6%
reduction of IBAT binding by atomoxetine [3]: 60%
Displacement of radiotracer by PIB ([4]; 10 μM PIB, hippocampus slices): > 80%
Displacement of radiotracer by unlabeled PIB (in words) ([4]; 10 μM PIB, hippocampus slices): displaced
Binding to SP compared with the other radiotracers (in words) ([4]; ^11C-TAZA vs ^11C-Dalene and ^11C-PIB): higher specific binding component; also recorded: highest binding
Binding to SP present in AD brains compared to the normal controls (in words) ([4]; hippocampus slices): bound specifically

CNc1ccc(N=Nc2ccc(N(C)C)cc2)cc1 [TAZA]
IC50 (amyloid plaques; human Alzheimers brain homogenate tissue in 10% alcohol in PBS buffer, ^3H-PIB, read-out: binding affinity (IC50)): 0.0128 µM
times better in binding to amyloid plaques compared to PIB (amyloid plaques; human brain tissue, from IC50 values): ~10 times
